Experimental data as given in the supplement of paper PMC11061612.

How the values were obtained:
Experiment in all cases: combination Emax (second highest fraction inhibited in the dose matrix, 72 h); higher = more inhibition; extreme values may be limits of the assay
[1] = system: CCK-81 (Colorectal Carcinoma)
Summary of the method: (§1)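 Cell lines in DMEM/F12 or RPMI with 10% FBS were plated in 1536-well plates, held 24 hours at 37°C, 5% CO2, then given two-drug dose matrices for 72 hours (DMSO typically 0.2%). Viability was read by CellTiter-Glo 2.0 luminescence and scaled as inhibition from 0 (vehicle wells) to 1 (blank wells). Combination Emax is the second-highest inhibition in the matrix; Bliss excess is observed combination effect minus expected EA + EB − EA·EB, EA and EB being single-agent effects.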

[2] = system: COLO-320-HSR (Colorectal Carcinoma)
Summary of the method: as §1

[3] = system: COLO-824 (Breast Carcinoma)
Summary of the method: as §1

[4] = system: ECC10 (Gastric Carcinoma)
Summary of the method: as §1

GI-ME-N (Neuroblastoma) = system: GI-ME-N (Neuroblastoma)
Summary of the method: as §1

[5] = system: KARPAS-422 (B-Cell Non-Hodgkin's Lymphoma)
Summary of the method: as §1

LN-405 (Glioblastoma) = system: LN-405 (Glioblastoma)
Summary of the method: as §1

[6] = system: MDST8 (Colorectal Carcinoma)
Summary of the method: as §1

[7] = system: NCI-H1581 (Non-Small Cell Lung Carcinoma)
Summary of the method: as §1

[8] = system: NCI-H1650 (Lung Adenocarcinoma)
Summary of the method: as §1

[9] = system: NCI-H1666 (Lung Adenocarcinoma)
Summary of the method: as §1

[10] = system: NCI-H1693 (Lung Adenocarcinoma)
Summary of the method: as §1

[11] = system: NCI-H2066 (Squamous Cell Lung Carcinoma)
Summary of the method: as §1

[12] = system: NCI-H2141 (Small Cell Lung Carcinoma)
Summary of the method: as §1

NCI-H2591 (Mesothelioma) = system: NCI-H2591 (Mesothelioma)
Summary of the method: as §1

[13] = system: NCI-H64 (Small Cell Lung Carcinoma)
Summary of the method: as §1

PA-1 (Ovarian Carcinoma) = system: PA-1 (Ovarian Carcinoma)
Summary of the method: as §1

[14] = system: SK-MES-1 (Squamous Cell Lung Carcinoma)
Summary of the method: as §1

[15] = system: SK-MG-1 (Low Grade Glioma)
Summary of the method: as §1

U-2-OS (Osteosarcoma) = system: U-2-OS (Osteosarcoma)
Summary of the method: as §1

| SMILES | combination Emax [1] | combination Emax [2] | combination Emax [3] | combination Emax [4] | combination Emax (GI-ME-N (Neuroblastoma)) | combination Emax [5] | combination Emax (LN-405 (Glioblastoma)) | combination Emax [6] | combination Emax [7] | combination Emax [8] | combination Emax [9] | combination Emax [10] | combination Emax [11] | combination Emax [12] | combination Emax (NCI-H2591 (Mesothelioma)) | combination Emax [13] | combination Emax (PA-1 (Ovarian Carcinoma)) | combination Emax [14] | combination Emax [15] | combination Emax (U-2-OS (Osteosarcoma)) |
| --- | --- | --- | --- | --- | --- | --- | --- | --- | --- | --- | --- | --- | --- | --- | --- | --- | --- | --- | --- | --- |
| COc1nnc2ccc(N3CCC(c4ccc(OCCN5CCN(C)C(=O)[C@H]5C)cc4)CC3)nn12 [AZD5153] + CC1(C)CCC(CN2CCN(c3ccc(C(=O)NS(=O)(=O)c4ccc(NCC5CCOCC5)c([N+](=O)[O-])c4)c(Oc4cnc5[nH]ccc5c4)c3)CC2)=C(c2ccc(Cl)cc2)C1 [Venetoclax] (first compound max 1 µM, 7x7, partner max 1 µM) | 0.848 | 0.442 | 0.881 | 0.985 | 0.285 | 0.948 | 0.441 | 0.324 | 0.469 | 0.394 | 0.439 | 0.514 | 0.338 | 0.262 | 0.331 | 0.226 | 0.862 | 0.472 | 0.425 | 0.321 |
| COc1nnc2ccc(N3CCC(c4ccc(OCCN5CCN(C)C(=O)[C@H]5C)cc4)CC3)nn12 [AZD5153] + CCN(CCO)CCCOc1ccc2c(Nc3cc(CC(=O)Nc4cccc(F)c4)[nH]n3)ncnc2c1 [AZD2811] (first compound max 1 µM, 7x7, partner max 1 µM) | 0.858 | 0.503 | 0.845 | 0.884 | 0.341 | 0.676 | 0.515 | 0.466 | 0.437 | 0.415 | 0.432 | 0.46 | 0.344 | 0.297 | 0.429 | 0.609 | 0.904 | 0.507 | 0.566 | 0.405 |
| COc1nnc2ccc(N3CCC(c4ccc(OCCN5CCN(C)C(=O)[C@H]5C)cc4)CC3)nn12 [AZD5153] + C[C@@H]1COCCN1C2=NC(=NC(=C2)C3(CC3)[S@](=N)(=O)C)C4=C5C=CNC5=NC=C4 [AZD6738] (first compound max 1 µM, 7x7, partner max 10 µM) | 0.95 | 0.719 | 0.869 | 0.916 | 0.464 | 0.887 | 0.53 | 0.812 | 0.714 | 0.509 | 0.493 | 0.597 | 0.41 | 0.578 | 0.558 | 0.927 | 0.973 | 0.769 | 0.595 | 0.589 |
| COc1nnc2ccc(N3CCC(c4ccc(OCCN5CCN(C)C(=O)[C@H]5C)cc4)CC3)nn12 [AZD5153] + Cc1c2c(nn1C)CSCc1cc(n(C)n1)CSc1cc(c3ccccc3c1)OCCCc1c(C(=O)O)n(C)c3c-2c(Cl)ccc13 [AZD5991] (first compound max 1 µM, 7x7, partner max 1 µM) | 0.916 | 0.89 | 0.724 | 1 | 0.377 | 0.991 | 0.574 | 0.355 | 0.983 | 0.441 | 0.423 | 0.56 | 0.35 | 0.346 | 0.368 | 0.399 | 1 | 0.558 | 0.425 | 0.418 |
| COc1nnc2ccc(N3CCC(c4ccc(OCCN5CCN(C)C(=O)[C@H]5C)cc4)CC3)nn12 [AZD5153] + Cn1cnc2c(F)c(Nc3ccc(Br)cc3Cl)c(C(=O)NOCCO)cc21 [Selumetinib] (first compound max 1 µM, 7x7, partner max 10 µM) | 1 | 0.333 | 0.694 | 0.955 | 0.349 | 0.68 | 0.332 | 0.826 | 0.599 | 0.441 | 0.558 | 0.569 | 0.345 | 0.276 | 0.629 | 0.237 | 0.91 | 0.717 | 0.467 | 0.628 |
| Cc1c2c(nn1C)CSCc1cc(n(C)n1)CSc1cc(c3ccccc3c1)OCCCc1c(C(=O)O)n(C)c3c-2c(Cl)ccc13 [AZD5991] + C1CN(CCC1(C(=O)N[C@@H](CCO)C2=CC=C(C=C2)Cl)N)C3=NC=NC4=C3C=CN4 [Capivasertib] (first compound max 1 µM, 7x7, partner max 3 µM) | 0.918 | 0.845 | 0.601 | 0.721 | 0.27 | 0.994 | 0.404 | 0.269 | 1 | 0.41 | 0.274 | 0.164 | 0.424 | 0.314 | 0.191 | 0.378 | 0.947 | 0.262 | 0.444 | 0.219 |
| Cc1c2c(nn1C)CSCc1cc(n(C)n1)CSc1cc(c3ccccc3c1)OCCCc1c(C(=O)O)n(C)c3c-2c(Cl)ccc13 [AZD5991] + C=CCn1c(=O)c2cnc(Nc3ccc(N4CCN(C)CC4)cc3)nc2n1-c1cccc(C(C)(C)O)n1 [AZD1775] (first compound max 1 µM, partner max 1 µM) | 0.928 | 0.801 | 0.667 | 0.858 | 0.532 | 0.965 | 0.55 | 0.597 | 1 | 0.548 | 0.338 | 0.386 | 0.256 | 0.652 | 0.266 | 0.933 | 0.937 | 0.593 | 0.783 | 0.809 |
